Literature values, collected in patent publication US20110251243A1, “Method and Kit for Assessing a Patient's Genetic Information, Lifestyle and Environment Conditions, and Providing a Tailored Therapeutic Regime” (priority 2005, published 2011).
Like-named read-outs stand apart in the source and are kept apart here.

Columns and labels:
[1] = tested on: patients
[2] = tested on: smokers; settings: women with at least one Taq1A allele compared to women with both common alleles
[3] = in the majority of people

In the case of `CCc1c2c(nc3ccc(OC(=O)N4CCC(N5CCCCC5)CC4)cc13)-c1cc3c(c(=O)n1C2)COC(=O)[C@]3(O)CC` [Irinotecan], the chance of neutropenia ([1]; heterozygotes (6/7)) is given as 12.5%, the likelihood of neutropenia ([1]; homozygous 7/7 genotype in UGT1A1*28) is given as 50% and the fatality ([1]; in vivo) is given as “up to 5%”. For the same molecule, the “severe diarrhoea and neutropenia, share of patients” value ([1]; in vivo) was 20-35% and the chance of neutropenia ([1]; wild type (homozygous 6/6 genotype)) was “roughly 0%”.

For `CC(NC(C)(C)C)C(=O)c1cccc(Cl)c1` (stereo not shown) [bupropion], the “smoking status at 12 months” value [2] is given as “more likely to be still smoking”.

In the case of `CN1CCCC1c1cccnc1` (stereo not shown) [nicotine], the “share metabolized to cotinine by C-oxidation” value [3] is listed as 70% to 80.
